Activity calls are given as the source filed them. No cut-off for these calls is given here.

The target in one data set is T1, NADPH oxidase 4 (Homo sapiens, UniProt Q9NPH5).
T1 sequence (Q9NPH5 whole entry): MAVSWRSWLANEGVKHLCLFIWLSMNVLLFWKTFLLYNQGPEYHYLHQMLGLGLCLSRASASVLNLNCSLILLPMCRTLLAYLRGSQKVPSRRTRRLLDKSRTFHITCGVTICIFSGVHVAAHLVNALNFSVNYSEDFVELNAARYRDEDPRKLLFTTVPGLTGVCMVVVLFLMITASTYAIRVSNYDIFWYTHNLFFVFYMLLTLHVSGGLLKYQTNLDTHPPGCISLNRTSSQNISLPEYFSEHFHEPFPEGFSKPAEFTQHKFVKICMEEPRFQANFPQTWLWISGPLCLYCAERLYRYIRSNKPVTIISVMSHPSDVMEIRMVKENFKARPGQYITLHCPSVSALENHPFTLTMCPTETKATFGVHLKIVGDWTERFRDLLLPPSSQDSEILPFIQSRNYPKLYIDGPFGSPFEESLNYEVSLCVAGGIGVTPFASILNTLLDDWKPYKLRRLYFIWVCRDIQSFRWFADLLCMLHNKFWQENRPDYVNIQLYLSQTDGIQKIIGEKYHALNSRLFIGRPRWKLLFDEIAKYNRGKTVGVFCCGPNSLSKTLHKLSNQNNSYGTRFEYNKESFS
Briefly: Inhibition of human Nox4 expressed in COS7 cells assessed as inhibition of PMA-induced H2O2 production by amplex red dye based fluorescence assay. The data set is classed as cell-based. Particulars: cos-7.

Data set [1] deals with Xanthine dehydrogenase/oxidase (Bos taurus, UniProt P80457). Briefly: Inhibition of bovine xanthine-oxidase assessed as H2O2 production at 25 to 50 uM by amplex red dye based fluorescence assay. Conditions: cattle.
Xanthine dehydrogenase/oxidase, sequence (P80457 whole entry): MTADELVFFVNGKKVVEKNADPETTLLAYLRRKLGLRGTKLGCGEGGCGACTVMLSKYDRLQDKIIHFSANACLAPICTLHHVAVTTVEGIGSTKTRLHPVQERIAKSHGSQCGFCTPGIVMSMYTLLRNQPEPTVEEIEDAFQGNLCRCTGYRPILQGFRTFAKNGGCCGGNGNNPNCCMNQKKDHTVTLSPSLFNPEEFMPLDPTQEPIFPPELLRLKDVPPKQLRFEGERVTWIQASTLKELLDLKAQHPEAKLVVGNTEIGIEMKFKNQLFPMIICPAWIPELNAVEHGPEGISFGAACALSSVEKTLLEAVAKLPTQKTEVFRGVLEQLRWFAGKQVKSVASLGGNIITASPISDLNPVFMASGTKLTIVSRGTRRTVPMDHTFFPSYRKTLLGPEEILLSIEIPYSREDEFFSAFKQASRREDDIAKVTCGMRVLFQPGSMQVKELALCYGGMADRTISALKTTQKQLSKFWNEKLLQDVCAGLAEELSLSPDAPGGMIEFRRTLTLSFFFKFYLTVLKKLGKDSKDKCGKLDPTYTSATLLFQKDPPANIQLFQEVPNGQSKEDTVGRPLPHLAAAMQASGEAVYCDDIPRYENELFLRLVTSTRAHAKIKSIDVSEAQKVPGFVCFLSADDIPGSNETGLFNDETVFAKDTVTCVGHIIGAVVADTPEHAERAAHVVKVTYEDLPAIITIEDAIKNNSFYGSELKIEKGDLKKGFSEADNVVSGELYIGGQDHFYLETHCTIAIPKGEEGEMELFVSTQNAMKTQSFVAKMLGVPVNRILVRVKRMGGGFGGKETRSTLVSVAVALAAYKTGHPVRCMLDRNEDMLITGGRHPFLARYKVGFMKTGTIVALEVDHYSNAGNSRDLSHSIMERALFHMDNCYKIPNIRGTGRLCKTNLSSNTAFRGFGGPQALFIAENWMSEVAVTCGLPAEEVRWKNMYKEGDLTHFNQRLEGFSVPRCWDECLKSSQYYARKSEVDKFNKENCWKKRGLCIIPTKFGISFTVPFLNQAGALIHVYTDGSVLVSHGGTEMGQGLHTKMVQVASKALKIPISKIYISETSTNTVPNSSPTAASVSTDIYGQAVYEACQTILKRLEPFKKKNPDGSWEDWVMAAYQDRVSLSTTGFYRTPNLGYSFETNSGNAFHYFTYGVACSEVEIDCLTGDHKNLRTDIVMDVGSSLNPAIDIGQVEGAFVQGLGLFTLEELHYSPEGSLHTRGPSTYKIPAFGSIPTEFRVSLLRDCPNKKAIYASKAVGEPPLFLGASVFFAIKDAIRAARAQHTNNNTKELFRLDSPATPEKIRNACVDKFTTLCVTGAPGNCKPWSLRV
A short description of data set [2]: Cytotoxicity against african green monkey COS7 cells at high concentration for 15 mins by fluorescence analysis. Particulars: chlorocebus aethiops, cos-7, 0.25 h. It is filed as cell-based.
In data set [3] the target is T2, NADPH oxidase 2 (Homo sapiens) (UniProt P04839).
T2 sequence (whole entry): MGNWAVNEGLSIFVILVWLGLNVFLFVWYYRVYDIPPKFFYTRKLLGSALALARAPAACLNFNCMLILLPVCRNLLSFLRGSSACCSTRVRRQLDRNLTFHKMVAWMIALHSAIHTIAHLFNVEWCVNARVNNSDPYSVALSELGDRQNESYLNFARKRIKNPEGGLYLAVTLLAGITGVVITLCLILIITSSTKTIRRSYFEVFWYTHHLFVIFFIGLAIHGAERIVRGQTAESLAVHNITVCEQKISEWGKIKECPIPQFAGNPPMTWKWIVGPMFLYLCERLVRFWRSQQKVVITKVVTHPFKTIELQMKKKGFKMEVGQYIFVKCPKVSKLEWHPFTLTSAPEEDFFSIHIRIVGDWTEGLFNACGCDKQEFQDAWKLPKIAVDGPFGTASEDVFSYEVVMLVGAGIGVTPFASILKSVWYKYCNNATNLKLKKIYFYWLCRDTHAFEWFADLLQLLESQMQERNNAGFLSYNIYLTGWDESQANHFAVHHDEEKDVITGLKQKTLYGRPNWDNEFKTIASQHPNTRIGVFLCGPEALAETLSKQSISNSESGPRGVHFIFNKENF
Briefly: Inhibition of human Nox2 expressed in COS7 cells co-transfected with human p22-phox,p47phox and p67-phox assessed as inhibition of LiDS-induced superoxide generation at 6.3 uM preincubated for 15 mins followed by addition of LiDS and NADPH. It is filed as cell-based. Conditions: COS-7.

For data set [4], the system named is HPAEC. Nature of the data set: Inhibition of high-glucose-stimulated superoxide production in HPAEC cells at 25 uM measured after 24 hrs. The data set is classed as functional, cell-based. Particulars: Homo sapiens.
The subject of data set [5] is HPAEC. Nature of the data set: Inhibition of angiotensin-2-stimulated superoxide production in HPAEC cells at 25 uM measured after 24 hrs. It is filed as functional, cell-based. Particulars: Homo sapiens.
Data set [6] addresses T2, NADPH oxidase 2 (Homo sapiens). Nature of the data set: Inhibition of human Nox2 expressed in COS7 cells co-transfected with human p22-phox,p47phox and p67-phox assessed as inhibition of PMA-induced ROS production at 10 uM. The data set is classed as cell-based. Particulars: COS-7.
The target in data set [7] is T3, NADPH oxidase 1 (Homo sapiens) (UniProt Q9Y5S8).
T3 sequence (whole entry): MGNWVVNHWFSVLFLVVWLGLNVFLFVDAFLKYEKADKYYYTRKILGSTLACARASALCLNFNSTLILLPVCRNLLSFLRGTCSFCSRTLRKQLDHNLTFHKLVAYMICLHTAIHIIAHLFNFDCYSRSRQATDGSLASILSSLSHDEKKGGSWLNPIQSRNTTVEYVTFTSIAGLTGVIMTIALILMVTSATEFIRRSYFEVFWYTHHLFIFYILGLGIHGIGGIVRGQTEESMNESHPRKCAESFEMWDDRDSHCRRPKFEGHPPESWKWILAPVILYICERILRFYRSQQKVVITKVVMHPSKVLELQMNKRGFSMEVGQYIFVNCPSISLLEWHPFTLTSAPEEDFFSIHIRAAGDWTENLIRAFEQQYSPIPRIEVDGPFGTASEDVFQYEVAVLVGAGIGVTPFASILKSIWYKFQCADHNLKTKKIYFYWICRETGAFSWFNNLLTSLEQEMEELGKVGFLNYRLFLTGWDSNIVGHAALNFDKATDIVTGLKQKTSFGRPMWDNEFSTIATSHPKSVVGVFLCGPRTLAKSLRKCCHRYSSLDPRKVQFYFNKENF
Nature of the data set: Inhibition of human Nox1 expressed in COS7 cells co-transfected with human co-transfected with human NOXO1/NOXA1 assessed as inhibition of PMA-induced ROS production at 10 uM. Particulars: COS-7. The data set is classed as cell-based.

The subject of data set [8] is Cardiac muscle cell. Nature of the data set: Inhibition of high-glucose-stimulated ROS production in rat cardiomyocyte at 25 uM. It is filed as functional.
Data set [9] concerns Cardiac muscle cell. Briefly: Inhibition of high-glucose-stimulated hypertrophy in rat cardiomyocyte at 25 uM. It is filed as functional.
The next data set concerns Fibroblast. Briefly: Inhibition of PMA-induced ROS production in human fibroblast at 10 uM. It is filed as functional, cell-based.
For data set [10], the target named is T4, NADPH oxidase 2 (Homo sapiens, UniProt P04839).
T4 sequence (P04839 whole entry): T2 sequence (whole entry)
Briefly: Inhibition of human Nox2 expressed in COS7 cells co-transfected with human p22-phox,p47phox and p67-phox assessed as inhibition of PMA-induced superoxide generation by L-012 chemiluminescence analysis. The data set is classed as cell-based. Particulars: cos-7.

Data set [11] addresses T4, NADPH oxidase 2. Nature of the data set: Inhibition of human Nox2 expressed in COS7 cells co-transfected with human p22-phox,p47phox and p67-phox assessed as inhibition of PMA-induced H2O2 production by amplex red dye based fluorescence assay. The data set is classed as cell-based. Particulars: cos-7.
The next data set has as its target T5, NADPH oxidase 1 (Homo sapiens, UniProt Q9Y5S8).
T5 sequence (Q9Y5S8 whole entry): T3 sequence (whole entry)
Nature of the data set: Inhibition of human Nox1 expressed in COS7 cells co-transfected with human NOXO1/NOXA1 assessed as inhibition of PMA-induced superoxide generation by L-012 chemiluminescence analysis. Particulars: cos-7. The data set is classed as cell-based.

With `C=C(C)C[C@@H]1N[C@H]2CC(C)(C)[C@@H]1c1c(Br)ccc(Br)c12`, at NADPH oxidase 4, the IC50 entry is given as “Not Active”. Also, the “inhibition (INH)” value in data set [1] was “Not Active”. The Activity entry in data set [2] was “Toxic”.

As to `C=C(C)CC1NC2CC(C)(C)C1c1c(Br)cccc12` (racemic), the inhibition result in [3] was “Active”. Further, the “inhibition (INH)” value in data set [1] is reported as “Not Active”. In [2], the Activity result is recorded as “Toxic”.

On to `C=C(C)CC1NC2CC(C)(C)C1c1ccccc12` (racemic), for which, on NADPH oxidase 4, the IC50 entry is “Not Active”. In data set [1], the “inhibition (INH)” value was “Not Active”.

In the case of `CC(C)CC1NC2CC(C)(C)C1c1c(Br)cccc12` (racemic), in [1], the “inhibition (INH)” value is reported as “Not Active”. The Activity result in data set [2] is “Toxic”.

For `C=C(C)CC1C2c3ccccc3C(CC2(C)C)N1Cc1cccc(F)c1` (racemic), the “inhibition (INH)” value in [1] is “Not Active”.

Take `C=C(C)CC1C2c3c(Br)cccc3C(CC2(C)C)N1Cc1ccnc2ccccc12` (racemic): the IC50 result on NADPH oxidase 4 is reported as “Not Active”. The “inhibition (INH)” value in [1] was “Not Active”.

With `C=C(C)CC1C2c3c(Br)cccc3C(CC2(C)C)N1Cc1c[nH]c2ccccc12` (racemic), at NADPH oxidase 4, the IC50 entry is recorded as “Not Active”. In addition, in data set [1], the “inhibition (INH)” value is on record as “Not Active”.

Take `C=C(C)CC1C2c3c(Br)cccc3C(CC2(C)C)N1Cc1ccc2c(c1)OCO2` (racemic): in data set [1], the “inhibition (INH)” value was “Not Active”.

As to `C=C(C)CC1C2c3c(Br)cccc3C(CC2(C)C)N1Cc1cc(C)on1` (racemic), in [1], the “inhibition (INH)” value is recorded as “Not Active”.

For the compound `C=C(C)CC1C2c3c(Br)cccc3C(CC2(C)C)N1Cc1cccc(F)c1` (racemic), the “inhibition (INH)” value in data set [1] is on record as “Not Active”.

As to `C=C(C)CC1C2c3c(Br)cccc3C(CC2(C)C)N1CCCCC` (racemic), the “inhibition (INH)” value in data set [1] is on record as “Not Active”. The inhibition entry (with HPAEC [4]; in data set [6]; in data set [7]; with Cardiac muscle cell [8]; in the data set with Cardiac muscle cell [9]; in the data set on Fibroblast) was “Active” each time. Further, the inhibition result in the data set with HPAEC [5] is “inactive”.

Consider `C=C(C)CC1NC2CC(C)(C)C1c1c(-c3ccc(Cl)c(Cl)c3)cccc12` (racemic), for which the “inhibition (INH)” value in data set [1] is recorded as “Not Active”.

With `C=C(C)C[C@@H]1N[C@H]2CC(C)(C)[C@@H]1c1c(-c3cccnc3)cccc12` (racemic), the IC50 result on NADPH oxidase 2 [10] and at NADPH oxidase 2 [11] was “Not Active” in each case.

As to `C=C(C)CC1C2c3c(-c4ccc(Cl)c(Cl)c4)cccc3C(CC2(C)C)N1Cc1ccc2c(c1)OCO2` (racemic), on NADPH oxidase 4, the IC50 entry is “Not Active”. In data set [1], the “inhibition (INH)” value is on record as “Not Active”.

As for `C=C(C)CC1C2c3c(-c4ccc(Cl)c(Cl)c4)cccc3C(CC2(C)C)N1CCCCC` (racemic), the “inhibition (INH)” value in data set [1] is reported as “Not Active”.

`C=C(C)CC1C2c3c(Br)cccc3C(CC2(C)C)N1S(C)(=O)=O` (racemic): the “inhibition (INH)” value in data set [1] is reported as “Not Active”. Moreover, the IC50 entry on NADPH oxidase 1 was “Not Active”.

On to `C=C(C)CC1C2c3c(Br)cccc3C(CC2(C)C)N1S(=O)(=O)c1ccc(F)cc1` (racemic), for which the IC50 result at NADPH oxidase 4 is “Not Active”. Further, the “inhibition (INH)” value in data set [1] is “Not Active”.

The record behind these values is ChEMBL document CHEMBL3727360, “Tetrahydroisoquinolines as selective nadph oxidase 2 inhibitors” (2014).
